Data published in publication PMC8468663, “Co-Spray Dried Nafamostat Mesylate with Lecithin and Mannitol as Respirable Microparticles for Targeted Pulmonary Delivery: Pharmacokinetics and Lung Distribution in Rats” (Pharmaceutics, 2021).
Structures can show the parent of a compound that is named as a salt.

Tests used:
in vivo = assay: in vivo; parameters: species or system Sprague–Dawley rats; conditions: rat, 10 mg/kg; for half-life: T½
Description: The Chungbuk National University Institutional Animal Care and Use Committee approved the experimental protocols and animal care methods used in this study. The first in vivo experiment was a pharmacokinetic study to determine the efficacy of NFM based on the route of administration and to determine the effect of lecithin as a stabilizer. After preparing a 0.5% mannitol solution (w/v), NFM was added at a concentration of 25 mg mL^−1 to prepare solution A. In addition, Tween 80 was added to solution A at 1% (w/v), plus lecithin, which was added at a concentration of 25 mg mL^−1, and stirred to evenly disperse it to produce solution B. Each experiment was carried out using a male SD rat (8 weeks old, 230–250 g) in three groups of 16 animals each. The SD rats were fed a commercial pellet diet and fresh water and housed at room temperature (23 ± 1 °C) with a relative humidity of 50 ± 10%, and a 12 h light and dark cycle. First, the intravenous (IV) group was administered a 100 μL dose of solution A (10 mg·kg^−^1) intravenously through the lateral tail vein. Second, a 100 μL dose of solution A (10 mg kg^−^1) was administered by intratracheal instillation (ITI) to the intratracheal instillation-1 (ITI-1) group. Finally, the ITI-2 group was administered a 100 μL dose of solution B (10 mg·kg^−^1). For the analysis of plasma concentration, blood was collected via the orbital vein 1, 5, 10, 30, and 60 min after administration to each group (n = 4). Blood was collected in a heparin tube and gently shaken. Plasma was immediately separated from the blood samples by centrifugation at 3000 rpm for 2 min. After administration to each group (n = 12), 4 rats were sacrificed at 10, 30, and 60 min. BALF samples were obtained by injecting and extracting 5 mL DW into the lungs of the rats. Lung tissues were placed in 10 mL DW and homogenized at 18,000 rpm for 3 min using a homogenizer. Acetonitrile (ACN) was added to plasma, BALF, and lung tissue samples in a ratio of 1:1 (v/v) to precipitate the proteins, and the sample solutions were centrifuged at 18,000 rpm for 5 min to obtain a supernatant. The supernatant was quantified by HPLC analysis. A second in vivo experiment was performed to determine the efficacy of NFM microparticles in a DPI formulation, focusing on the lung lumen and tissue. First, the solution group was administered a solution at a dose of 0.25 mg NFM per rat by ITI (1 mg·kg^−^1). Second, the SD-NM group was treated using a dry powder insufflator for the intratracheal administration of the SD-NM in the form of DPI at a dose of 0.25 mg of NFM per rat (1 mg·kg^−^1). Finally, the SD-NLM group was administered an SD-NLM at a dose of 0.25 mg of NFM per rat (1 mg kg^−^1) using a dry powder insufflator. BALF and lung tissue samples were prepared using the same procedure as that used for the in vivo study described above. The samples were quantified by HPLC analysis.

[1] = tested on: SARS-CoV-2 entry into host cells; parameters: method as in PMID 32312781; conditions: cited from earlier work
[2] = cited from earlier work
[3] = male, Sprague-Dawley, Amount of NFM in BALF
[4] = male, Sprague-Dawley, inhaled or intranasal

N=C(N)c1ccc2cc(OC(=O)c3ccc(N=C(N)N)cc3)ccc2c1 [NFM, Nafamostat mesylate]
Amount of NFM in BALF (in vivo; male, Sprague-Dawley, 10 min): 4.48 µg/mL | Amount of NFM in BALF (in vivo; male, Sprague-Dawley, 30 min): 1.69 µg/mL | concentration at 10 min (in vivo; [3]): 2900 ng/mL | concentration at 30 min (in vivo; [3]): 1690 ng/mL | Tmax (in vivo; male, Sprague-Dawley, Tmax): 5 min | Cmax (in vivo; [4]): 22900 ± 4640 ng/mL | Tmax (in vivo; [4]): 4.0 ± 1.00 min | T½ (in vivo; [4]): 28.6 ± 3.51 min | AUC(0-inf) (in vivo; [4]): 11200 ng·h/mL | Cmax (in vivo; male, Sprague-Dawley, inhaled or intranasal, Cmax): 25900 ± 4230 ng/mL | half-life (in vivo; [4]): 26.7 ± 2.6 min | AUC(inf) (in vivo; male, Sprague-Dawley, iv): 436.1 ± 31.59 µg·min/mL | AUC(0-inf) (in vivo; male, Sprague-Dawley, iv): 7270 ng·h/mL | concentration at 10 min (in vivo; male, Sprague-Dawley, iv, Amount of NFM in BALF): 960 ng/mL | Cmax (in vivo; male, Sprague-Dawley, iv, Cmax): 43700 ± 7980 ng/mL | half-life (in vivo; male, Sprague-Dawley, iv): 13.2 ± 0.52 min | Amount of NFM in BALF (in vivo): still had remaining NFM in the BALF | Amount of NFM in lung tissue (in vivo): some residual drug | Amount of NFM in BALF (in vivo; iv): There was no NFM in the BALF | Half-life of ITI-1 and ITI-2 groups relative to IV group (in vivo; iv): approximately twice | EC50, inhibition of SARS-CoV-2 entry into host cells [1]: low nanomolar range | Efficiency of inhibition of SARS-CoV-2 entry relative to camostat mesylate [1]: approximately 15 fold | Half-life in human blood [2]: approximately 3 min
